According to patent publication US20100137161A1, “METHOD OF GENERATING A PLATELET […] FOR AN INDIVIDUAL” (ROYAL COLLEGE OF SURGEONS IN IRELAND, priority 2006, published 2010):

Test system: platelet rich plasma (PRP)
Assay: 96 well plate light transmission platelet aggregation assay, dose response to multiple agonists
Format: cell-based
Settings: for platelet reactivity induced by the agonist (dose response curve): PRP of an inflamed rheumatoid arthritis patient, compared to the normal population (n=50), FIG. 3
Method: Healthy subjects who had not taken any antiplatelet medication in the 14 days prior to the study were recruited. Subjects refrained from intensive exercise and tobacco use for 4 hours prior to early morning phlebotomy. Blood was drawn from the antecubital fossa. The first 5 ml taken was discarded to avoid unwanted platelet activation and the next 27 ml of blood was collected in 3 ml of 3.2% sodium citrate anticoagulant. This blood citrate mixture was then centrifuged at 150 g for 10 min to recover the supernatant platelet rich plasma (PRP). The platelet concentration was measured using a Sysmex KX 21N.
A 96 well black isoplate with clear bottoms was used. Agonists were arranged in rows of Row 1—Arachidonic Acid (AA), Row 2—Collagen, Row 3—ADP, Row 4—Epinephrine, Row 5—Thrombin related activated peptide (TRAP) and Row 6 as a control row containing 4 wells of PRP and 4 wells of Platelet Poor Plasma (PPP). The remaining 6 rows maybe used for additional agonists or specific peptides as required.
Buffer A (6 mM Dextrose, 130 mM NaCl, 9 mM NaHCO3, 10 mM trisodium citrate, 10 mM Tris Base, 3 mM KCl, 0.81 mM KH2PO4, and 0.9 mM MgCl26H2O [pH7.4]) was added to wells 2-8 on each row using a 12 channel pipette. Row 1—10 μl of buffer A was inserted into well 2. Then 20 μl of buffer A was added to each of the wells 3-8 inclusive. Then 50 μl of AA (500 mg/ml stock) was inserted into well 1. 30 μl of AA was removed from well 1 and mixed with buffer A in well 2. 20 μl of the AA/buffer A was removed from well 2 and mixed in well 3. 20 μl is then removed from well 3 and mixed in well 4. This is repeated throughout the row up to and including well 8 with 20 μl left over and discarded. Row 2—Collagen (1.9 mg.ml stock) same process as Row 1. Row 3 & 5 ADP (Row 3) and TRAP (Row 5), wells 2-8 had 20 μl of buffer A placed into each. A quantity of 40 μl of ADP (200 μM stock) was placed into well 1. 20 μl of agonist was removed from well 1 and placed into well 2 where it was then mixed thoroughly with buffer A. This same process was then repeated across the plate with 20 μl left over after well 8. This was then discarded. The same process is repeated for Row 5—TRAP (200 μM stock). […]
The plate is then placed into a Wallac Victor 3 plate reader. The plate is read at time zero (T0) at absorbance 572 nm. […] T3 (3 minutes) read is taken and then shaking recommences until T9 (9 minutes) read. Further reads are taken at T15 (15 minutes) and T18 (18 minutes) with shaking in between each time-point. […]
The data is then normalised from the PPP and PRP absorbance values which represent minimum and maximum aggregation. […]

| SMILES | inhibition of the COX pathway, arachidonic acid dose response curve (same male, visit 2, 4 weeks later, aspirin (soluble) 150 mg with clopidogrel 75 mg once daily, FIG. 7) | platelet reactivity induced by the agonist (dose response curve) |
| --- | --- | --- |
| CC(=O)Oc1ccccc1C(=O)O [aspirin (soluble), aspirin] | clearly inhibited | – |
| Nc1ncnc2c1ncn2[C@@H]1O[C@H](COP(=O)(O)OP(=O)(O)O)[C@@H](O)[C@H]1O [ADP] | – | excessive platelet reactivity |
| CNC[C@H](O)c1ccc(O)c(O)c1 [Epinephrine] | – | excessive platelet reactivity |
| CCCCC/C=C\C/C=C\C/C=C\C/C=C\CCCC(=O)O [Arachidonic Acid] | – | excessive platelet reactivity |
